According to patent publication US12419307B2, “Mixtures comprising indazole pesticides” (FMC Corporation, priority 2019, dated 2025):

Columns and labels:
Type in all cases: in vivo
[1] = tested on: silverleaf whitefly (Bemisia argentifolii Bellows and Perring); experiment: Test A: silverleaf whitefly control on cotton or soybean plants, spray, insect mortality after 13 days; settings: for % Mortality (obs): applied alone
Method: (§1) The pest control protection afforded by the mixtures or compositions is not limited, however, to these species. The analysis of enhanced activity between the mixtures or compositions was determined using Colby's equation. The average % mortality data for the test compounds alone were inserted into the Colby's equation. If the observed (obs) average % mortality was higher than “p”, the expected (exp) % mortality, the mixture or composition had enhanced effects. If the observed average % mortality was equal to or lower than the expected mortality, the mixture or composition either had no enhanced effect. For bioassays where insect feeding damage was evaluated, enhanced activity is identified when the observed plant damage is less than the expected plant damage rating; ratings ranged between 0 (no damage) and 10 (dead plant) and each value was converted to a % plant protection. 100−(Obs Plant Damage*10)
For evaluating control of silverleaf whitefly (Bemisia argentifolii Bellows and Perring) through contact and/or systemic means, each test unit consisted of a small open container with a 12- to 14-day-old cotton plant or 5-7 day old soybean plant inside. This was pre-infested by placing test units into cages containing adult whiteflies so that oviposition on the cotton leaves could occur. The adults were removed from the plants with an air-blast nozzle, and the test units were capped. The test units were then stored 2 to 3 days before spraying.
Test compounds were formulated using a solution containing 10% acetone, 90% water and 300 ppm Activator 90@ Spreader Lo-Foam Formula non-ionic surfactant containing alkylarylpolyoxyethylene, free fatty acids, glycols and 2-propanol (Loveland Industries, Inc.) to provide the desired concentration in ppm. Formulated test solutions were then applied in 1 mL volumes through a SUJ2 atomizer nozzle with ⅛ JJ custom body (Spraying Systems Co.) positioned 1.27 cm (0.5 inches) above the top of each test unit.
The results for all experimental compositions in this test were replicated three times. After spraying of the formulated test composition, each test unit was allowed to dry for 1 hour and the cap removed. The test units were held for 13 days in a growth chamber at 28° C. and 50-70% relative humidity.

[2] = tested on: Western Flower Thrips (Frankliniella occidentalis Pergande); experiment: Test B: Western Flower Thrips control on bean plants, plant damage rating converted to % plant protection after 7 days
Method: as §1
Thus, a plant given a plant damage rating of 3 out of 10 is equivalent to 70% plant protection In all of these tests, compounds of Formula I are Compounds 1 (Cpd 1), 2 (Cpd2), and 3 (Cpd3) and compounds of Formula II are compounds 4 (Cpd4) and 5 (Cpd 5).
For evaluating control of the Western Flower Thrips (Frankliniella occidentalis Pergande) through contact and/or systemic means, each test unit consisted of a small open container with a 5- to 7-day-old bean (var. Soleil) plant inside.
Test solutions were formulated and sprayed with 3 replications as described for Test A. After spraying, the test units were allowed to dry for 1 hour, 22 to 27 adult thrips were added to each unit and then a black, screened cap was placed on top. The test units were held for 7 days at 25° C. and 45-55% relative humidity. To evaluate the level of plant protection provided by each treatment, each test unit was then visually assessed for plant damage inflicted by insect feeding and rated 0-10, where 0=undamaged and 10=plant is dead; the results are listed in Tables 3a-g.

[3] = tested on: cotton melon aphid (Aphis gossypii Glover); experiment: Test D: cotton melon aphid control on okra plants, insect mortality after 6 days
Method: The analysis of enhanced activity between the mixtures or compositions was determined using Colby's equation. The average % mortality data for the test compounds alone were inserted into the Colby's equation. If the observed (obs) average % mortality was higher than “p”, the expected (exp) % mortality, the mixture or composition had enhanced effects. If the observed average % mortality was equal to or lower than the expected mortality, the mixture or composition either had no enhanced effect. For bioassays where insect feeding damage was evaluated, enhanced activity is identified when the observed plant damage is less than the expected plant damage rating; ratings ranged between 0 (no damage) and 10 (dead plant) and each value was converted to a % plant protection. 100−(Obs Plant Damage*10)
For evaluating control of cotton melon aphid (Aphis gossypii Glover) through contact and/or systemic means, each test unit consisted of a small open container with a 6- to 7-day-old okra plant inside. This was pre-infested by placing on a leaf of the test plant 30 to 40 aphids on a piece of leaf excised from a culture plant (cut-leaf method). The […] moved onto the test plant as the leaf piece desiccated. After pre-infestation, the soil of the test unit was covered with a layer of sand.
Test compounds were formulated and sprayed as described for Test A. The applications were replicated three times. After spraying of the formulated test compounds, each test unit was allowed to dry for 1 hour and then a black, screened cap was placed on top. […]

[4] = tested on: corn planthopper (Peregrinus maidis (Ashmead)); experiment: Test C: corn planthopper control on corn plants, insect mortality after 6 days; settings: for % Mortality (obs): Table 4e
Method: as §1
For evaluating control of corn planthopper (Peregrinus maidis (Ashmead)) through contact and/or systemic means, the test unit consisted of a small open container with a 3-4-day-old corn (maize) plant inside. White sand was added to the top of the soil prior to application of the test compound.
Test compounds were formulated and sprayed at 250 and/or 50 ppm and/or 10 ppm. After spraying of the formulated test compound, the test units were allowed to dry for 1 h before they were post-infested with ˜15-20 nymphs (18-to-21-day-old). […]

[5] = tested on: fall armyworm (Spodoptera frugiperda (J. E. Smith)); experiment: Test E: fall armyworm control on corn plants, plant damage rating and mortality after 6 days
Method: as §1
For evaluating control of fall armyworm (Spodoptera frugiperda (J. E. Smith)) the test unit consisted of a small open container with a 4-5-day-old corn (maize) plant inside. This was pre-infested with 10-15 1-day-old larvae on a piece of insect diet. Test compounds were formulated and sprayed with 3 replications as described for Test A. After spraying of the formulated test compound, the test units were maintained in a growth chamber for 6 days at 25° C. and 70% relative humidity. Plant feeding damage was then visually assessed based on foliage consumed, and larvae were assessed for mortality. Each test unit was then visually assessed for plant damage and rated 0-10, where 0=undamaged and 10=plant is dead; the results are listed in Tables 6d-i.

[6] = tested on: Potato Leafhopper (Empoasca fabae Harris); experiment: Test C: Potato Leafhopper control on bean plants, insect mortality after 6 days; settings: read-out: % Mortality (obs)
Method: as §1
For evaluating control of Potato Leafhopper (Empoasca fabae Harris) through contact and/or systemic means, each test unit consisted of a small open container with a 5- to 6-day-old Longio bean plant (primary leaves emerged) inside. White sand was added to the top of the soil, and one of the primary leaves was excised prior to application. Test compounds were formulated and sprayed with 3 replications as described for Test A. After spraying, the test units were allowed to dry for 1 hour before they were infested with 5 potato leafhoppers (18- to 21-day-old adults). A black, screened cap was placed on the top of each container. The test units were held for 6 days in a growth chamber at 19-21° C. and 50-70% relative humidity.

[7] = Bemisia argentifolii, read-out: % Mortality (obs)
[8] = Aphis gossypii, read-out: % Mortality (obs)
[9] = Peregrinus maidis, read-out: % Mortality (obs)
[10] = Spodoptera frugiperda, 144 h, read-out: Plant Protection (obs)
[11] = Peregrinus maidis, 96 h, read-out: % Mortality (obs)

For `Cc1c(COC(=O)[C@@H]2[C@H](/C=C(\Cl)C(F)(F)F)C2(C)C)cccc1-c1ccccc1` (racemic) [Bifenthrin, bifenthrin, reference compound], the mortality at 50 ppm [1, 7] was 0%, the mortality at 250 ppm [1, 7] was 0% and the pest or weed control at 50 ppm ([2]; Frankliniella occidentalis, 168 h, Table 3f, 50 ppm, read-out: Plant Protection (obs)) was 36.7%. The pest or weed control at 250 ppm ([2]; Frankliniella occidentalis, 168 h, Table 3f, 250 ppm, read-out: Plant Protection (obs)) was 70%, the mortality at 50 ppm [3, 8] was 28.7% and the mortality at 250 ppm [3, 8] was 58.2%.

In the case of `C/C(=N\C#N)N(C)Cc1ccc(Cl)nc1` [Acetamiprid, acetamiprid, reference compound], the mortality at 2.52 ppm [1, 7] is reported as 6.5%, the mortality at 6.88 ppm [1, 7] is reported as 25.4% and the “Plant Protection (obs)” value ([2]; Table 3b, applied alone, 5.49 ppm) is reported as 30.0%. The “Plant Protection (obs)” value ([2]; Table 3b, applied alone, 7.04 ppm) was 70.0%, the mortality at 0.03 ppm [3, 8] was 21.1% and the mortality at 0.06 ppm [3, 8] was 45.1%.

In the case of `CC(C)N1C(=O)N(c2ccccc2)CS/C1=N\C(C)(C)C` [Buprofezin, buprofezin, reference compound], the mortality at 0.524 ppm [4, 9] is reported as 83.7% and the mortality at 0.984 ppm [4, 9] is reported as 94.6%.

Molecule `CNC(=O)c1cc(Cl)cc(C)c1NC(=O)c1cc(Br)nn1-c1ncccc1Cl` [Chlorantraniliprole, chlorantraniliprole, reference compound] has a mortality at 0.54 ppm [1, 7] of 0%, a mortality at 189.1 ppm [1, 7] of 59.2% and a pest or weed control at 2.08 ppm ([2]; Frankliniella occidentalis, 168 h, Table 3e, 2.08 ppm, read-out: Plant Protection (obs)) of 63.3%. The pest or weed control at 28.7 ppm ([2]; Frankliniella occidentalis, 168 h, Table 3e, 28.7 ppm, read-out: Plant Protection (obs)) was 60%, the mortality at 0.23 ppm [3, 8] was 21% and the mortality at 0.63 ppm [3, 8] was 42.3%.

Molecule `CCOCn1c(-c2ccc(Cl)cc2)c(C#N)c(Br)c1C(F)(F)F` [Chlorfenapyr, chlorfenapyr, reference compound] has a pest or weed control at 3.7 ppm [5, 10] of 66.7% and a pest or weed control at 5 ppm [5, 10] of 53.3%.

Work on `CCOP(=S)(OCC)Oc1nc(Cl)c(Cl)cc1Cl` [Chlorpyrifos, chlorpyrifos, reference compound] yielded a mortality at 0.173 ppm [3, 8] of 17.7% and a mortality at 0.624 ppm [3, 8] of 37.9%.

Work on `N#Cc1nn(-c2c(Cl)cc(C(F)(F)F)cc2Cl)c(N)c1[S+]([O-])C(F)(F)F` (centres unmarked) [Fipronil, fipronil, reference compound] yielded a mortality at 0.78 ppm [4, 9] of 65.2% and a mortality at 1.197 ppm [4, 9] of 85.5%.

With `N#CCNC(=O)c1cnccc1C(F)(F)F` [Flonicamid, flonicamid, reference compound] the “% Mortality (obs)” value ([3]; Table 5k, 0.027 ppm) was 24.2% and the “% Mortality (obs)” value ([3]; Table 5k, 0.267 ppm) was 49.3%.

For `O=C1C=C(N(Cc2ccc(Cl)nc2)CC(F)F)CO1` [Flupyradifurone, 4-[[(6-chloro-3-pyridinyl)methyl](2,2-difluoroethyl)amino]-2(5H)-furanone, reference compound], the mortality at 0.02 ppm [3, 8] was 23.4% and the mortality at 0.075 ppm [3, 8] was 48%.

For `O=[N+]([O-])NC1=NCCN1Cc1ccc(Cl)nc1` [Imidacloprid, imidacloprid, reference compound], the mortality at 15.1 ppm [1, 7] was 0%, the mortality at 21.15 ppm [1, 7] was 24.7% and the “Plant Protection (obs)” value ([2]; Table 3c, applied alone, 6.4 ppm) was 66.7%. For the same molecule, the “Plant Protection (obs)” value ([2]; Table 3c, applied alone, 10.9 ppm) was 86.7%, the mortality at 0.82 ppm [6] was 53.3% and the mortality at 2.25 ppm [6] was 40%. It also gave a mortality at 0.09 ppm [4, 11] of 29.2%, a mortality at 0.16 ppm [4, 11] of 20% and a mortality at 0.05 ppm [3, 8] of 33.3%. The mortality at 0.1 ppm [3, 8] was 6.7%.

For `COC(=O)N(C(=O)N1CO[C@@]2(C(=O)OC)Cc3cc(Cl)ccc3C2=N1)c1ccc(OC(F)(F)F)cc1` [Indoxacarb, indoxacarb, reference compound], the “% Mortality (obs)” value ([1]; Table 2g, 50 ppm) was 1.2%, the “% Mortality (obs)” value ([1]; Table 2g, 250 ppm) was 0% and the “Plant Protection (obs)” value ([2]; Table 3g, 50 ppm) was 10.0. The “Plant Protection (obs)” value ([2]; Table 3g, 250 ppm) was 36.7, the “% Mortality (obs)” value ([3]; Table 5h, 50 ppm) was 23.4% and the “% Mortality (obs)” value ([3]; Table 5h, 250 ppm) was 37.5%. For the same molecule, the “Plant Protection (obs)” value ([5]; Table 6e, 0.2 ppm) was 70 and the “Plant Protection (obs)” value ([5]; Table 6e, 0.5 ppm) was 70.

`CNC(=O)ON=C(C)SC` [Methomyl, methomyl, reference compound] showed a pest or weed control at 8.5 ppm [5, 10] of 43.3%.

Molecule `COc1cccc(C(=O)NN(C(=O)c2cc(C)cc(C)c2)C(C)(C)C)c1C` [Methoxyfenozide, methoxyfenozide, reference compound] has a pest or weed control at 2.8 ppm [5, 10] of 36.7%.

`O=C(NC(=O)c1c(F)cccc1F)Nc1ccc(OC(F)(F)C(F)OC(F)(F)F)c(Cl)c1` (centres unmarked) [Novaluron, novaluron, reference compound] showed a pest or weed control at 0.21 ppm [5, 10] of 33.3% and a pest or weed control at 0.36 ppm [5, 10] of 80%.

`CC1(C)C(C=C(Cl)Cl)C1C(=O)OCc1cccc(Oc2ccccc2)c1` (centres unmarked) [Permethrin, permethrin, reference compound] gave a mortality at 0.0004 ppm [3, 8] of 15.6% and a mortality at 0.04 ppm [3, 8] of 32.1%.

Work on `CC(COc1ccc(Oc2ccccc2)cc1)Oc1ccccn1` (centres unmarked) [Pyriproxyfen, pyriproxyfen, reference compound] yielded a mortality at 0.053 ppm [1, 7] of 68%.

`CCc1nn(C)c(C(=O)NCc2ccc(Oc3ccc(C)cc3)cc2)c1Cl` [Tolfenpyrad, tolfenpyrad, reference compound] gave a mortality at 0.192 ppm [3, 8] of 29% and a mortality at 0.753 ppm [3, 8] of 61.9%.

emamectin benzoate [reference compound] was tested, and the “Plant Protection (obs)” value ([5]; Table 6f, 0.03 ppm) was 43.3 and the “Plant Protection (obs)” value ([5]; Table 6f, 0.06 ppm) was 23.3.

In the case of spinetoram [reference compound], the “% Mortality (obs)” value ([1]; Table 2h, 5 ppm) is reported as 0%, the “% Mortality (obs)” value ([1]; Table 2h, 29.5 ppm) is reported as 64.4% and the “% Mortality (obs)” value ([4]; 8.46 ppm) is reported as 7.5%. For the same molecule, the “% Mortality (obs)” value ([4]; 20.79 ppm) was 14.1%, the “% Mortality (obs)” value ([3]; Table 5f, 50 ppm) was 51.2% and the “% Mortality (obs)” value ([3]; Table 5f, 250 ppm) was 73.9%.
